# Source: US20260337583A1, “CYTOCHROME P450 ENZYME, NUCLEIC ACID MOLECULE, AND GLYCYRRHETINIC ACID DERIVATIVE AND USE THEREOF” (CHINA PHARMACEUTICAL UNIVERSITY, priority 2023, published 2026)
# Read-outs that look alike come from different tables or passages of the source.
# How the values were obtained:
# [1] = test system: human colon cancer cells (SW480); assay: CCK-8 tumor cell growth inhibition, SW480; format: cell-based; conditions: for IC50: Homo sapiens, SW480, 48 h co-incubation, CCK-8, read-out: IC50 against SW480; for activity against human colon cancer cells compared with the parent compound 1 (glycyrrhetinic acid): relative to parent compound 1
# Procedure: (§1) Human hepatocellular carcinoma cells (HepG2) and human colon cancer cells (SW480) were cultured in a complete culture medium consisting of high-glucose DMEM supplemented with 10% (v/v) heat-inactivated fetal bovine serum, 100 U/mL of penicillin, and […] of streptomycin. All cells used in the experiments were cultured in an incubator at 37° C. with 5% CO2 saturated humidity.
# (§2) All compounds were dissolved in DMSO to prepare 20 mM compound stock solutions. • 10 μL of the compound stock solution was added to 1 mL of the complete culture medium to prepare a 200 μM compound solution; • 4 μL of the compound stock solution was added to 1 mL of the complete culture medium to prepare a 80 μM compound solution; • 0.5 mL of the 80 μM compound solution was added to 0.5 mL of the complete culture medium to prepare a 40 μM compound solution; • 0.5 mL of the 40 μM compound solution was added to 0.5 mL of the complete culture medium to prepare a 20 μM compound solution; • 0.5 mL of the 20 μM compound solution was added to 0.5 mL of the complete culture medium to prepare a 10 μM compound solution; • 0.5 mL of the 10 μM compound solution was added to 0.5 mL of the complete culture medium to prepare a 5 μM compound solution;
# (§3) The inhibitory effects of the compounds on tumor cell growth were evaluated using a CCK-8 assay. A cell suspension at a predetermined density (5× 10^4/mL cells/mL) was seeded into a 96-well plate. Outermost 36 wells of the 96-well plate were filled with 200 μL of PBS buffer (0.01 M, pH 7.4), while inner 60 wells thereof were used as a drug group, a blank group, and a negative control group. Each group was tested in triplicate.
# (§4) Drug group: 100 μL of the cell suspension was added to each well and incubated for 24 h, and 100 μL of the 80 μM compound solution (100 μL of the 200 μM solution was added to Compound 1) was added for co-incubating for another 48 h; 20 μL of CCK-8 solution was added to each well, followed by incubation for another 2 h; and absorbance at 450 nm was measured with a microplate reader.
# (§5) Blank group: 100 μL of the complete culture medium was added to each well and incubated for 24 h, and 100 μL of the complete culture medium was then added for co-incubating for another 48 h; 20 μL of CCK-8 solution was added to each well, followed by incubation for another 2 h; and absorbance at 450 nm was measured with a microplate reader.
# (§6) Negative control group: 100 μL of the cell suspension was added to each well and incubated for 24 h, and 100 μL of the complete culture medium containing 0.4 μL of DMSO was then added for co-incubating for another 48 h; 20 μL of CCK-8 solution was added to each well, followed by incubation for another 2 h; and absorbance at 450 nm was measured with a microplate reader.
# (§7) The cell growth inhibitory ratio (IR) was calculated according to the following formulas:
# (§8) [formula] • IR: Inhibitory Ratio • ODpositive: absorbance of the drug group • ODblank: absorbance of the blank group • ODnegative: absorbance of the negative control group
# (§9) Each concentration was tested in triplicate. Based on the tumor cell inhibitory ratios at different concentrations, the IC50 was calculated using GraphPad Prism 9.
# [2] = test system: Human hepatocellular carcinoma cells (HepG2); assay: CCK-8 tumor cell growth inhibition, HepG2; format: cell-based; conditions: for IC50: Homo sapiens, HepG2, 48 h co-incubation, CCK-8, read-out: IC50 against HepG2
# Procedure: as §1, §2, §3, §4, §5, §6, §7, §8, §9
# CYP161H12 [3] = molecular target: T1, CYP161H12 (Amycolatopsis pretoriensis, UniProt A0A1H5RFX8); assay: CYP161H12 catalytic activity on different substrates (cell-free CYP161H12-RHFRed/opt13 conversion, liquid chromatography); conditions: role: substrate; 2 mM substrate, 0.5 equiv. NADP+, 50 equiv. Na2HPO3·5H2O, 5% DMSO, pH 7.0, 23° C., 20 h; enzyme 3.68×10^−3 mM
# CYP161H12 [4] = molecular target: T1, CYP161H12
# T1 sequence (A0A1H5RFX8 1-404): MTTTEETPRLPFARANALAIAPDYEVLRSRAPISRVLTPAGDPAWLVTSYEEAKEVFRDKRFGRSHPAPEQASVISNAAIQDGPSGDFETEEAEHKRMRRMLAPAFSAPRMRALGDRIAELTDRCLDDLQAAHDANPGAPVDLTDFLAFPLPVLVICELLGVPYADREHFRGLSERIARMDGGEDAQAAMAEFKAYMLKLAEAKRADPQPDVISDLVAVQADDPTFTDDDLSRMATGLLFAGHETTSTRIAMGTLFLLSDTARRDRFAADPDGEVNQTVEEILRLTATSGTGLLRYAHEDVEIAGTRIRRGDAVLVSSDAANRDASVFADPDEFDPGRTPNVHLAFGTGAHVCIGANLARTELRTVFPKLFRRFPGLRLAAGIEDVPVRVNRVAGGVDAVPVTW
Structure (SMILES),IC50 [1],IC50 [2],also measured
"CC1(C)[C@@H](O)CC[C@]2(C)[C@H]3C(=O)C=C4[C@@H]5C[C@@](C)(C(=O)O)CC[C@]5(C)CC[C@@]4(C)[C@]3(C)CC[C@@H]12 [Compound 1, glycyrrhetinic acid]",> 100 µM,> 100 µM,yield of Substrate catalyzed by CYP161H12 (CYP161H12 [3]): 100%
"CC(=O)O[C@H]1CC[C@]2(C)[C@H]3C(=O)C=C4[C@@H]5C[C@@](C)(C(=O)O)CC[C@]5(C)CC[C@@]4(C)[C@]3(C)CC[C@H]2C1(C)C [Substrate 2, 3-acetyl-glycyrrhetinic acid]",,,yield of Substrate catalyzed by CYP161H12 (CYP161H12 [3]): 92%
"CCC(=O)O[C@H]1CC[C@]2(C)[C@H]3C(=O)C=C4[C@@H]5C[C@@](C)(C(=O)O)CC[C@]5(C)CC[C@@]4(C)[C@]3(C)CC[C@H]2C1(C)C [Substrate 3, 3-propionyl-glycyrrhetinic acid]",,,yield of Substrate catalyzed by CYP161H12 (CYP161H12 [3]): 61%
"CCCC(=O)O[C@H]1CC[C@]2(C)[C@H]3C(=O)C=C4[C@@H]5C[C@@](C)(C(=O)O)CC[C@]5(C)CC[C@@]4(C)[C@]3(C)CC[C@H]2C1(C)C [Substrate 4, 3-butyryl-glycyrrhetinic acid]",,,yield of Substrate catalyzed by CYP161H12 (CYP161H12 [3]): 23%
"CC1(C)C(=O)CC[C@]2(C)[C@H]3C(=O)C=C4[C@@H]5C[C@@](C)(C(=O)O)CC[C@]5(C)CC[C@@]4(C)[C@]3(C)CC[C@@H]12 [Substrate 5, 3-oxo-glycyrrhetinic acid]",,,ratio of hydroxylated products a:b (CYP161H12 [4]): 76:24; yield of Substrate catalyzed by CYP161H12 (CYP161H12 [4]; pH 7): 87%
"CC1(C)C(=O)C=C[C@]2(C)[C@H]3C(=O)C=C4[C@@H]5C[C@@](C)(C(=O)O)CC[C@]5(C)CC[C@@]4(C)[C@]3(C)CC[C@@H]12 [Substrate 6, 3-oxo-1-ene-glycyrrhetinic acid]",,,yield of Substrate catalyzed by CYP161H12 (CYP161H12 [3]): 81%
CC1(C)OC(=O)CC[C@]2(C)[C@H]3C(=O)C=C4[C@@H]5C[C@@](C)(C(=O)O)CC[C@]5(C)CC[C@@]4(C)[C@]3(C)CC[C@@H]12 [Substrate 7],,,yield of Substrate catalyzed by CYP161H12 (CYP161H12 [3]): 87%
CC1(C)c2oncc2C[C@]2(C)[C@H]3C(=O)C=C4[C@H]5C[C@@](C)(C(=O)O)CC[C@]5(C)CC[C@@]4(C)[C@]3(C)CC[C@@H]12 [Substrate 8],,,yield of Substrate catalyzed by CYP161H12 (CYP161H12 [3]): 97%

# The next lines start with results.
IC50 [1],IC50 [2],Structure (SMILES),also measured
> 40 µM,> 40 µM,CC1(C)[C@@H](O)CC[C@]2(C)[C@H]3C(=O)C=C4[C@@H]5C[C@@](C)(C(=O)O)CC[C@]5(C)CC[C@@]4(C)[C@]3(C)[C@@H](O)C[C@@H]12 [Compound 1a],
> 40 µM,> 40 µM,CC1(C)[C@@H](O)CC[C@]2(C)[C@H]3C(=O)C=C4[C@@H]5C[C@@](C)(C(=O)O)CC[C@]5(C)C[C@H](O)[C@@]4(C)[C@]3(C)[C@@H](O)C[C@@H]12 [Compound 1b],
> 40 µM,> 40 µM,CC(=O)O[C@H]1CC[C@]2(C)[C@H]3C(=O)C=C4[C@@H]5C[C@@](C)(C(=O)O)CC[C@]5(C)CC[C@@]4(C)[C@]3(C)[C@@H](O)C[C@H]2C1(C)C [Compound 2a],
> 40 µM,> 40 µM,CC(=O)O[C@H]1CC[C@]2(C)[C@H]3C(=O)C=C4[C@@H]5C[C@@](C)(C(=O)O)CC[C@]5(C)C[C@H](O)[C@@]4(C)[C@]3(C)[C@@H](O)C[C@H]2C1(C)C [Compound 2b],
> 40 µM,> 40 µM,CCC(=O)O[C@H]1CC[C@]2(C)[C@H]3C(=O)C=C4[C@@H]5C[C@@](C)(C(=O)O)CC[C@]5(C)CC[C@@]4(C)[C@]3(C)[C@@H](O)C[C@H]2C1(C)C [Compound 3a],
> 40 µM,> 40 µM,CCCC(=O)O[C@H]1CC[C@]2(C)[C@H]3C(=O)C=C4[C@@H]5C[C@@](C)(C(=O)O)CC[C@]5(C)CC[C@@]4(C)[C@]3(C)[C@@H](O)C[C@H]2C1(C)C [Compound 4a],
> 40 µM,> 40 µM,CC1(C)C(=O)CC[C@]2(C)[C@H]3C(=O)C=C4[C@@H]5C[C@@](C)(C(=O)O)CC[C@]5(C)CC[C@@]4(C)[C@]3(C)[C@@H](O)C[C@@H]12 [Compound 5a],
> 40 µM,> 40 µM,CC1(C)C(=O)CC[C@]2(C)[C@H]3C(=O)C=C4[C@@H]5C[C@@](C)(C(=O)O)CC[C@]5(C)C[C@H](O)[C@@]4(C)[C@]3(C)[C@@H](O)C[C@@H]12 [Compound 5b],
> 40 µM,> 40 µM,CC1(C)C(=O)C=C[C@]2(C)[C@H]3C(=O)C=C4[C@@H]5C[C@@](C)(C(=O)O)CC[C@]5(C)CC[C@@]4(C)[C@]3(C)[C@@H](O)C[C@@H]12 [Compound 6a],
> 40 µM,> 40 µM,CC1(C)C(=O)C=C[C@]2(C)[C@H]3C(=O)C=C4[C@@H]5C[C@@](C)(C(=O)O)CC[C@]5(C)C[C@H](O)[C@@]4(C)[C@]3(C)[C@@H](O)C[C@@H]12 [Compound 6b],
> 40 µM,> 40 µM,CC1(C)OC(=O)CC[C@]2(C)[C@H]3C(=O)C=C4[C@@H]5C[C@@](C)(C(=O)O)CC[C@]5(C)CC[C@@]4(C)[C@]3(C)[C@@H](O)C[C@@H]12 [Compound 7a],
> 40 µM,> 40 µM,CC1(C)OC(=O)CC[C@]2(C)[C@H]3C(=O)C=C4[C@@H]5C[C@@](C)(C(=O)O)CC[C@]5(C)C[C@H](O)[C@@]4(C)[C@]3(C)[C@@H](O)C[C@@H]12 [Compound 7b],
> 40 µM,> 40 µM,CC1(C)c2oncc2C[C@]2(C)[C@H]3C(=O)C=C4[C@@H]5C[C@@](C)(C(=O)O)CC[C@]5(C)CC[C@@]4(C)[C@]3(C)[C@@H](O)C[C@@H]12 [Compound 8a],
> 40 µM,> 40 µM,CC1(C)c2oncc2C[C@]2(C)[C@H]3C(=O)C=C4[C@@H]5C[C@@](C)(C(=O)O)CC[C@]5(C)C[C@H](O)[C@@]4(C)[C@]3(C)[C@@H](O)C[C@@H]12 [Compound 8b],
> 40 µM,> 40 µM,COC(=O)[C@@]1(C)CC[C@]2(C)CCC3(C)C(=CC(=O)[C@@H]4[C@@]5(C)CC[C@H](O)C(C)(C)[C@@H]5C[C@H](O)[C@]43C)[C@@H]2C1 (some centres unmarked) [Compound 9a],
> 40 µM,> 40 µM,COC(=O)[C@@]1(C)CC[C@]2(C)C[C@H](O)[C@]3(C)C(=CC(=O)[C@@H]4[C@@]5(C)CC[C@H](O)C(C)(C)[C@@H]5C[C@H](O)[C@]43C)[C@@H]2C1 [Compound 9b],
39.2 ± 2.34 µM,> 40 µM,C=CCCCCOC(=O)[C@@]1(C)CC[C@]2(C)CC[C@]3(C)C(=CC(=O)[C@@H]4[C@@]5(C)CC[C@H](O)C(C)(C)[C@@H]5C[C@H](O)[C@]43C)[C@@H]2C1 [Compound 10a],activity against human colon cancer cells compared with the parent compound 1 (glycyrrhetinic acid) [1]: more than twice the activity
32 ± 3.36 µM,38.6 ± 0.54 µM,C=CCCCCOC(=O)[C@@]1(C)CC[C@]2(C)C[C@H](O)[C@]3(C)C(=CC(=O)[C@@H]4[C@@]5(C)CC[C@H](O)C(C)(C)[C@@H]5C[C@H](O)[C@]43C)[C@@H]2C1 [Compound 10b],activity against human colon cancer cells compared with the parent compound 1 (glycyrrhetinic acid) [1]: more than twice the activity; activity against human liver cancer cells compared with the parent compound 1 (glycyrrhetinic acid) ([2]; relative to parent compound 1): more than twice the activity
